Measurements reported in patent US20220226342A1, “COMPOSITIONS AND METHODS OF TREATING LIVER CANCERS” (The Johns Hopkins University, priority 2019, published 2022).

Assays:
HCC 50 = assay: IC50 in PDO line; format: cell-based; conditions: Homo sapiens
Method: (§1) The inventors tested omacetaxine at decreasing concentrations (10 μM, 1 μM, 100 nM, 10 nM and 1 nM) to calculate the half-maximal inhibitory concentration (IC50). […] The IC50 value for each of the 40 HCC PDO lines can be found in Table 2.

HCC 77 = assay: IC50 in PDO line; format: cell-based; conditions: Homo sapiens
Method: as §1

HCC 65-2 = assay: IC50 in PDO line; format: cell-based; conditions: Homo sapiens
Method: as §1

HCC 83-2 = assay: IC50 in PDO line; format: cell-based; conditions: Homo sapiens
Method: as §1

HCC 65-3 = assay: IC50 in PDO line; format: cell-based; conditions: Homo sapiens
Method: as §1

HCC 34-3 = assay: IC50 in PDO line; format: cell-based; conditions: Homo sapiens
Method: as §1

HCC 71-4 = assay: IC50 in PDO line; format: cell-based; conditions: Homo sapiens
Method: as §1

HCC 80-3 = assay: IC50 in PDO line; format: cell-based; conditions: Homo sapiens
Method: as §1

HCC 80-1 = assay: IC50 in PDO line; format: cell-based; conditions: Homo sapiens
Method: as §1

HCC 38 = assay: IC50 in PDO line; format: cell-based; conditions: Homo sapiens
Method: as §1

HCC 57 = assay: IC50 in PDO line; format: cell-based; conditions: Homo sapiens
Method: as §1

HCC 83-3 = assay: IC50 in PDO line; format: cell-based; conditions: Homo sapiens
Method: as §1

HCC 80-4 = assay: IC50 in PDO line; format: cell-based; conditions: Homo sapiens
Method: as §1

HCC 26-5 = assay: IC50 in PDO line; format: cell-based; conditions: Homo sapiens
Method: as §1

HCC 71-1 = assay: IC50 in PDO line; format: cell-based; conditions: Homo sapiens
Method: as §1

HCC 67-2 = assay: IC50 in PDO line; format: cell-based; conditions: Homo sapiens
Method: as §1

HCC 26-8 = assay: IC50 in PDO line; format: cell-based; conditions: Homo sapiens
Method: as §1

HCC 36-3 = assay: IC50 in PDO line; format: cell-based; conditions: Homo sapiens
Method: as §1

HCC 26-7 = assay: IC50 in PDO line; format: cell-based; conditions: Homo sapiens
Method: as §1

HCC 83-1 = assay: IC50 in PDO line; format: cell-based; conditions: Homo sapiens
Method: as §1

HCC 71-2 = assay: IC50 in PDO line; format: cell-based; conditions: Homo sapiens
Method: as §1

HCC 25-1 = assay: IC50 in PDO line; format: cell-based; conditions: Homo sapiens
Method: as §1

HCC 76 = assay: IC50 in PDO line; format: cell-based; conditions: Homo sapiens
Method: as §1

HCC 26-4 = assay: IC50 in PDO line; format: cell-based; conditions: Homo sapiens
Method: as §1

HCC 67-1 = assay: IC50 in PDO line; format: cell-based; conditions: Homo sapiens
Method: as §1

HCC 37 = assay: IC50 in PDO line; format: cell-based; conditions: Homo sapiens
Method: as §1

HCC 25-2 = assay: IC50 in PDO line; format: cell-based; conditions: Homo sapiens
Method: as §1

HCC 59 = assay: IC50 in PDO line; format: cell-based; conditions: Homo sapiens
Method: as §1

HCC 80-2 = assay: IC50 in PDO line; format: cell-based; conditions: Homo sapiens
Method: as §1

PDX26-3 = system: PDX26-3
Method: FIG. 7A-7I. […] Significance was determined with log rank test. […] Error bars represent Mean±standard deviation. […] (7J).
Patient derived xenograft (PDX) models of human cancer are well documented to recapitulate primary tumor biology, as well as response to treatment^28, 29. Two PDX models from HCC patients were established in the inventors' lab with the purpose of creating a platform for further validation of drug leads. The first model, PDX26-3, was established by subcutaneous injection of HCC PDO cells into NOD SCID-IL2R-γ chain-deficient mice (NSG, Jackson Lab). More specifically, PDX26-3 is established from PDO26-3 cells at passage 3. After the initial PDX establishment, the model is perpetuated by implantation of pieces of tumors from current generation PDX mice into the next (as described in Materials and Methods).

26-3 PDX = assay: Ki67 immunofluorescent staining of PDX tumor frozen sections; format: in vivo, NSG mice; conditions: omacetaxine treated HCC PDX tumors vs matched controls
Source text: FIG. 8A-8G. Omacetaxine inhibits tumor cell proliferation and increases apoptosis and suppressed HCC oncoprotein expression in vivo. (8A-8D) Immunofluorescent staining of Ki67 and cleaved caspase 3 expression in 26-3 PDX model. 8A-8B show the IF staining pictures, 8C-8D show the relative Ki67 or cleaved caspase 3 positive cell number in omacetaxine treated mice compared with control treatment groups. (8E-8G) Omacetaxine suppressed HCC oncoprotein: c-Myc, Beta-catenin and MET protein expression in 50 HCC PDX treated with Omacetaxine vs control.
To verify the mechanism of omacetaxine target HCC mechanism in vivo, omacetaxine treated HCC PDX tumors, as well as matched controls, were harvested, and frozen section slides were made. […] The difference in apoptosis as well as proliferation was statistically significant (FIGS. 8C and 8D).

6 HCC PDO lines = assay: cell cycle analysis; format: cell-based, human
Method: FIG. 6A-6B. Cell cycle analysis of omacetaxine treated HCC PDOs. […] (6A) The histogram of cell cycle distributions.
The effects on proliferation were assessed to elucidate the omacetaxine mechanisms of action. […] To further understand the effects of omacetaxine on cancer cell proliferation and cell cycle, the inventors performed FACS analysis of Ki67 protein. Ki-67 is a nuclear protein expressed in proliferating cells (in all phases of the cell cycle except G0)^22,23. Furthermore, the higher expression of Ki67 has been linked to poorer disease free survival and overall survival in HCC^24. […] As caspase 3 is a key molecule in apoptosis, the inventors measured its activated (cleaved) fragment.

Structure (SMILES): COC(=O)C[C@](O)(CCCC(C)(C)O)C(=O)O[C@@H]1C(OC)=C[C@]23CCCN2CCc2cc4c(cc2[C@H]13)OCO4 [omacetaxine, omacetaxine mepusuccinate]
- IC50 (HCC 50): 29.8 nM
- IC50 (HCC 77): 46.1 nM
- IC50 (HCC 65-2): 7.4 nM
- IC50 (HCC 83-2): 19.2 nM
- IC50 (HCC 65-3): 2.26 nM
- IC50 (HCC 34-3): 37.7 nM
- IC50 (HCC 71-4): 9.98 nM
- IC50 (HCC 80-3): 15.7 nM
- IC50 (HCC 80-1): 80.1 nM
- IC50 (HCC 38): 18.5 nM
- IC50 (HCC 57): 14.1 nM
- IC50 (HCC 83-3): 8.85 nM
- IC50 (HCC 80-4): 3.18 nM
- IC50 (HCC 26-5): 66.7 nM
- IC50 (HCC 71-1): 7.29 nM
- IC50 (HCC 67-2): 12.8 nM
- IC50 (HCC 26-8): 37.8 nM
- IC50 (HCC 36-3): 80.7 nM
- IC50 (HCC 26-7): 1.41 nM
- IC50 (HCC 83-1): 17.7 nM
- IC50 (HCC 71-2): 2.05 nM
- IC50 (HCC 25-1): 37.4 nM
- IC50 (HCC 76): 35.5 nM
- IC50 (HCC 26-4): 33.5 nM
- IC50 (HCC 67-1): 4.03 nM
- IC50 (HCC 37): 3.52 nM
- IC50 (HCC 25-2): 11.7 nM
- IC50 (HCC 59): 21.2 nM
- IC50 (HCC 80-2): 44 nM
- size of the tumors at the end of the treatment (PDX26-3; PDX26-3, day 30, vs control): statistically significant difference
- weight of the tumors at the end of the treatment (PDX26-3; PDX26-3, day 30, vs control): statistically significant difference
- increase in survival (PDX26-3; PDX26-3 mice, statistically significant): approximately 100%
- tumor growth (PDX26-3; PDX26-3 mice, treatment applied directly into the tumor): halting of tumor growth
- body mass of mice, treatment vs. control group (PDX26-3; mouse, in vivo): no difference in the body mass
- proliferation as measured by Ki67 protein expression (26-3 PDX): less
- cell cycle arrest (6 HCC PDO lines; 6 HCC PDOs, dose-dependent): induces G0/G1 arrest
- G0/G1 fraction with rising omacetaxine dose (6 HCC PDO lines; all 6 HCC PDOs): around 90%
